Converted amounts (≈) assume the structure as drawn.
How the values were obtained:
hα4 and β1 integrins = biological target: T1, hα4 and β1 integrins (Homo sapiens, UniProt P05556+P13612); assay: In vitro inhibition of binding between CHO cells expressing hα4 and β1 integrins and Eu3+-hVCAM-1 D1D7-IgG; details: for Ki: CHO cells expressing hα4 and β1 integrins, Eu3+-hVCAM-1 D1D7-IgG ligand, without HSA; for IC50: in the presence of 3% human serum albumin (HSA final concentration 3%)
T1 construct: expressed in transfected cells; host or cells: CHO cells
T1 sequence (P13612 34-1032): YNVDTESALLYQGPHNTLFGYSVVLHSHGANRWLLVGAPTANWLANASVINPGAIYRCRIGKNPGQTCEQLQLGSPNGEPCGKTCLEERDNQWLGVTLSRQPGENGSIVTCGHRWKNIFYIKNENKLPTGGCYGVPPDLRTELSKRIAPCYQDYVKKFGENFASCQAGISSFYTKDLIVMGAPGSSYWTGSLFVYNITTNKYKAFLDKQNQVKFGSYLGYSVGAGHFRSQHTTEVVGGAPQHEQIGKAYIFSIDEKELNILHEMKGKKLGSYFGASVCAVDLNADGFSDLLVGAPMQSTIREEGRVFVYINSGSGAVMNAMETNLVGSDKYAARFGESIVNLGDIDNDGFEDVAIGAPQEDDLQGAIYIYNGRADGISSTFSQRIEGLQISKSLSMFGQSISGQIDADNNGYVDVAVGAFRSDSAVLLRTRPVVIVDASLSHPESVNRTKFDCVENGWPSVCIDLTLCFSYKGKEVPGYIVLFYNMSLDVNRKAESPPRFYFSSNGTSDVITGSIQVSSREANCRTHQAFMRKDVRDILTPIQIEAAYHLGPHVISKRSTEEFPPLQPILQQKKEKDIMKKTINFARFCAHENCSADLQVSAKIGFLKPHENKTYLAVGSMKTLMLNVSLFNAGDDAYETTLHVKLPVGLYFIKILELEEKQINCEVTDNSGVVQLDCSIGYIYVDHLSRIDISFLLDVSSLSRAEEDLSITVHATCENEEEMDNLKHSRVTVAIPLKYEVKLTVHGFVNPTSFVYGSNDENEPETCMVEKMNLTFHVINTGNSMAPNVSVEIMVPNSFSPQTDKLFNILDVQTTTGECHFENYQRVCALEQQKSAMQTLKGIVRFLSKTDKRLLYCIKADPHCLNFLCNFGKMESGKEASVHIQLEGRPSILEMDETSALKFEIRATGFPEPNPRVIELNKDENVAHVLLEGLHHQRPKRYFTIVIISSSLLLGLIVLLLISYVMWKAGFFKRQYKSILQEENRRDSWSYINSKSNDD
T1 sequence (P05556 21-798): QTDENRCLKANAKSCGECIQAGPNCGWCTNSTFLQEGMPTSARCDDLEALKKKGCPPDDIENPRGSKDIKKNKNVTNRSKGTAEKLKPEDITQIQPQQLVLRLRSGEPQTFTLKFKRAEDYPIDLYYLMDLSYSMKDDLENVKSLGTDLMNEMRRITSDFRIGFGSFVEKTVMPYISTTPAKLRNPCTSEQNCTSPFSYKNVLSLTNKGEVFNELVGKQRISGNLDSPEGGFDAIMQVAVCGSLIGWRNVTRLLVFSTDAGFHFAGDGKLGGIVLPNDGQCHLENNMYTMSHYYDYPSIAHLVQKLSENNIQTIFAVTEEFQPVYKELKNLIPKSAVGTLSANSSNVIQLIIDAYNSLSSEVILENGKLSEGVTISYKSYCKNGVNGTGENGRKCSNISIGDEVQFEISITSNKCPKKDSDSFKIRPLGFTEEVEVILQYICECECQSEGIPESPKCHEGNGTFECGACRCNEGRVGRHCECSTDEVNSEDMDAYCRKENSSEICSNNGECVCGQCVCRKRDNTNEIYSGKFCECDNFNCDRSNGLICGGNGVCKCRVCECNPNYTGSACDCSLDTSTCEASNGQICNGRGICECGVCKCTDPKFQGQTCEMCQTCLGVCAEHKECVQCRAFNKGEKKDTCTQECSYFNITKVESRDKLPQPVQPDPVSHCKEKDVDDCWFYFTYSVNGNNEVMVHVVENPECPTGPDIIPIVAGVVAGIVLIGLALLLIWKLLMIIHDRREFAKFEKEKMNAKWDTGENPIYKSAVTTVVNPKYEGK
Method in brief: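 Transfected CHO cells, cultured 2 days, were incubated with compound and Eu³⁺-hVCAM-1 D1D7-IgG (diluted to 2 nM) for 1 h at room temperature. Buffer was 25 mM HEPES pH 7.5 with 1 mM Ca²⁺, 1 mM Mg²⁺, 4 mM Mn²⁺ and 0.1% BSA, ±3% HSA final. Cells were washed at 4 °C and read by DELFIA time-resolved fluorescence; Ki was derived from IC50 using the Scatchard Kd.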

[1] = Solubility test in first and second liquid of the Japanese Pharmacopoeia
Experimental: The solubilities of the substance under test in the first liquid (JP1, pH=1.2) of the Japanese Pharmacopoeia and the second liquid (JP2, pH=6.8) of the Japanese Pharmacopoeia, were evaluated.

[2] = first liquid of the Japanese Pharmacopoeia (JP1), pH 1.2, simulated gastric fluid, First liquid of Japanese Pharmacopoeia (μg/mL), JP1, pH=1.2
[3] = second liquid of the Japanese Pharmacopoeia (JP2), pH 6.8, aqueous buffer, Second liquid of Japanese Pharmacopoeia (μg/mL), JP2, pH=6.8

Row | Ki (hα4 and β1 integrins) [nM] | IC50 (hα4 and β1 integrins) [nM] | solubility [1, 2] [µg/mL] | solubility [1, 3] [µg/mL] | Solubility, Second liquid of Japanese Pharmacopoeia ([1]; JP2, pH=6.8) [µg/mL] | Structure (SMILES)
1 | 2.6 | 12 | 1100 (≈ 1550 µM) | 1100 (≈ 1550 µM) |  | O=C(Nc1cc(F)c(CC(=O)N2C[C@@H](N3CC(N4CCCCC4)C3)C[C@H]2CO[C@H]2CC[C@H](C(=O)O)CC2)cc1Cl)c1csc2ccccc12 [Example 28, Trans-4-[1-[[4-[(benzo[b]thiophen-3-ylcarbonyl)amino]-5-chloro-2-fluorophenyl]acetyl]-(4S)-[3-(piperidin-1-yl)azetidin-1-yl]-(2S)-pyrrolidinylmethoxy]cyclohexanecarboxylic acid]
2 | 4.2 | 12 | 1000 (≈ 1470 µM) | 1000 (≈ 1470 µM) |  | CN(C)CC1CN([C@H]2C[C@@H](CO[C@H]3CC[C@H](C(=O)O)CC3)N(C(=O)Cc3cc(Cl)c(NC(=O)c4cn(C)c5ccccc45)cc3F)C2)C1 [Example 29, Trans-4-[1-[[5-chloro-2-fluoro-4-[(1-methyl-1H-indol-3-ylcarbonyl)amino]phenyl]acetyl]-(4S)-[3-(N,N-dimethylaminomethyl)azetidin-1-yl]-(2S)-pyrrolidinylmethoxy]cyclohexane carboxylic acid]
3 | 4.6 | 12 | 1100 (≈ 1550 µM) | 1100 (≈ 1550 µM) |  | O=C(Nc1cc(F)c(CC(=O)N2C[C@@H](N3CC(CN4CCOCC4)C3)C[C@H]2CO[C@H]2CC[C@H](C(=O)O)CC2)cc1Cl)c1coc2ccccc12 [Example 30, Trans-4-[1-[[4-[(benzo[b]furan-3-ylcarbonyl)amino]-5-chloro-2-fluorophenyl]acetyl]-(4S)-[3-(4-morpholinylmethyl)azetidin-1-yl]-(2S)-pyrrolidinylmethoxy]cyclohexanecarboxylic acid]
4 | 1.2 | 5.8 | 1840 (≈ 2800 µM) | 1680 (≈ 2560 µM) |  | O=C(Nc1cc(Cl)c(CC(=O)N2C[C@@H](N3CCCC3)C[C@H]2CO[C@H]2CC[C@H](C(=O)O)CC2)cc1Cl)c1csc2ccccc12 [Example 31, Trans-4-[1-[[4-[(benzo[b]thiophen-3-ylcarbonyl)amino]-2,5-dichlorophenyl]acetyl]-(4S)-(pyrrolidin-1-yl)-(2S)-pyrrolidinylmethoxy]cyclohexanecarboxylic acid]
5 | 0.74 | 3.5 | 1700 (≈ 2530 µM) | 1690 (≈ 2510 µM) |  | CO[C@@H]1CCN([C@H]2C[C@@H](CO[C@H]3CC[C@H](C(=O)O)CC3)N(C(=O)Cc3cc(Cl)c(NC(=O)c4csc5ccccc45)cc3F)C2)C1 [Example 32, Trans-4-[1-[[4-[(benzo[b]thiophen-3-ylcarbonyl)amino]-5-chloro-2-fluorophenyl]acetyl]-(4S)-[(3R)-methoxypyrrolidin-1-yl]-(2S)-pyrrolidinylmethoxy]cyclohexanecarboxylic acid]
6 | 5.6 | 20 | > 2000 | > 2000 |  | CO[C@@H]1CCN([C@H]2C[C@@H](CO[C@H]3CC[C@H](C(=O)O)CC3)N(C(=O)Cc3cc(Cl)c(NC(=O)c4cn(C)c5ccccc45)cc3Cl)C2)C1 [Example 33, Trans-4-[1-[[2,5-dichloro-4-[(1-methyl-1H-indol-3-ylcarbonyl)amino]phenyl]acetyl]-(4S)-[(3R)-methoxypyrrolidin-1-yl]-(2S)-pyrrolidinylmethoxy]cyclohexanecarboxylic acid]
7 | 2 | 9.9 | > 2000 | 1640 (≈ 2390 µM) |  | CCO[C@@H]1CCN([C@H]2C[C@@H](CO[C@H]3CC[C@H](C(=O)O)CC3)N(C(=O)Cc3cc(Cl)c(NC(=O)c4csc5ccccc45)cc3F)C2)C1 [Example 34, Trans-4-[1-[[4-[(benzo[b]thiophen-3-ylcarbonyl)amino]-5-chloro-2-fluorophenyl]acetyl]-(4S)-[(3R)-ethoxypyrrolidin-1-yl]-(2S)-pyrrolidinylmethoxy]cyclohexanecarboxylic acid]
8 | 5.9 | 20 | > 2000 | > 2000 |  | CO[C@H]1CCN([C@H]2C[C@@H](CO[C@H]3CC[C@H](C(=O)O)CC3)N(C(=O)Cc3cc(Cl)c(NC(=O)c4cn(C)c5ccccc45)cc3Cl)C2)C1 [Example 35, Trans-4-[1-[[2,5-dichloro-4-[(1-methyl-1H-indol-3-ylcarbonyl)amino]phenyl]acetyl]-(4S)-[(3S)-methoxypyrrolidin-1-yl]-(2S)-pyrrolidinylmethoxy]cyclohexanecarboxylic acid]
9 | 5.9 | 24 | 1940 (≈ 2770 µM) | 1840 (≈ 2630 µM) |  | CCO[C@H]1CCN([C@H]2C[C@@H](CO[C@H]3CC[C@H](C(=O)O)CC3)N(C(=O)Cc3cc(Cl)c(NC(=O)c4cn(C)c5ccccc45)cc3Cl)C2)C1 [Example 36, Trans-4-[1-[[2,5-dichloro-4-[(1-methyl-1H-indol-3-ylcarbonyl)amino]phenyl]acetyl]-(4S)-[(3S)-ethoxypyrrolidin-1-yl]-(2S)-pyrrolidinylmethoxy]cyclohexanecarboxylic acid]
10 | 0.32 | 1.1 | > 2000 | > 2000 | 1931 | CN(C)C(=O)[C@@H]1CCCN1[C@H]1C[C@@H](CO[C@H]2CC[C@H](C(=O)O)CC2)N(C(=O)Cc2cc(Cl)c(NC(=O)c3csc4ccccc34)cc2F)C1 [Example 42]
11 | 7.3 | 15 | 1200 (≈ 1640 µM) | 1200 (≈ 1640 µM) |  | COC[C@@H]1C[C@H](OC)CN1[C@H]1C[C@@H](CO[C@H]2CC[C@H](C(=O)O)CC2)N(C(=O)Cc2cc(Cl)c(NC(=O)c3cn(C)c4ccccc34)cc2Cl)C1 [Example 46, Trans-4-[1-[[2,5-dichloro-4-[(1-methyl-1H-indol-3-ylcarbonyl)amino]phenyl]acetyl]-(4S)-[(2S)-methoxymethyl-(4S)-methoxypyrrolidin-1-yl]-(2S)-pyrrolidinylmethoxy]cyclohexanecarboxylic acid]
12 | 5.8 | 18 | 1000 (≈ 1400 µM) | 1000 (≈ 1400 µM) |  | CO[C@H]1CN([C@H]2C[C@@H](CO[C@H]3CC[C@H](C(=O)O)CC3)N(C(=O)Cc3cc(Cl)c(NC(=O)c4cn(C)c5ccccc45)cc3Cl)C2)C[C@@H]1OC [Example 51, Trans-4-[1-[[2,5-dichloro-4-[(1-methyl-1H-indol-3-ylcarbonyl)amino]phenyl]acetyl]-(4S)-[(3S,4S)-dimethoxypyrrolidin-1-yl]-(2S)-pyrrolidinylmethoxy]cyclohexanecarboxylic acid]
13 | 1.2 | 8.4 | 1000 (≈ 1420 µM) | 1000 (≈ 1420 µM) |  | CO[C@H]1CN([C@H]2C[C@@H](CO[C@H]3CC[C@H](C(=O)O)CC3)N(C(=O)Cc3cc(Cl)c(NC(=O)c4csc5ccccc45)cc3F)C2)C[C@@H]1OC [Example 52, Trans-4-[1-[[4-[(benzo[b]thiophen-3-ylcarbonyl)amino]-5-chloro-2-fluorophenyl]acetyl]-(4S)-[(3S,4S)-dimethoxypyrrolidin-1-yl]-(2S)-pyrrolidinylmethoxy]cyclohexanecarboxylic acid]
14 | 2 | 11 | 1000 (≈ 1460 µM) | 1000 (≈ 1460 µM) |  | CO[C@H]1CN([C@H]2C[C@@H](CO[C@H]3CC[C@H](C(=O)O)CC3)N(C(=O)Cc3cc(Cl)c(NC(=O)c4coc5ccccc45)cc3F)C2)C[C@@H]1OC [Example 53, Trans-4-[1-[[4-[(benzo[b]furan-3-ylcarbonyl)amino]-5-chloro-2-fluorophenyl]acetyl]-(4S)-[(3S,4S)-dimethoxypyrrolidin-1-yl]-(2S)-pyrrolidinylmethoxy]cyclohexanecarboxylic acid]
15 | 3.4 | 25 | 1000 (≈ 1420 µM) | 1000 (≈ 1420 µM) |  | CO[C@H]1CN([C@H]2C[C@@H](CO[C@H]3CC[C@H](C(=O)O)CC3)N(C(=O)Cc3cc(Cl)c(NC(=O)c4coc5ccccc45)cc3Cl)C2)C[C@@H]1OC [Example 54, Trans-4-[1-[[4-[(benzo[b]furan-3-ylcarbonyl)amino]-2,5-dichlorophenyl]acetyl]-(4S)-[(3S,4S)-dimethoxypyrrolidin-1-yl]-(2S)-pyrrolidinylmethoxy]cyclohexanecarboxylic acid]
16 | 7.9 | 18 | 1000 (≈ 1420 µM) | 1000 (≈ 1420 µM) |  | CO[C@H]1CN([C@H]2C[C@@H](CO[C@H]3CC[C@H](C(=O)O)CC3)N(C(=O)Cc3cc(Cl)c(NC(=O)c4coc5ccccc45)cc3Cl)C2)C[C@H]1OC [Example 60, Trans-4-[1-[[4-[(benzo[b]furan-3-ylcarbonyl)amino]-2,5-dichlorophenyl]acetyl]-(4S)-(cis-3,4-dimethoxypyrrolidin-1-yl)-(2S)-pyrrolidinylmethoxy]cyclohexanecarboxylic acid]
17 | 4.7 | 23 | 1000 (≈ 1340 µM) | 1000 (≈ 1340 µM) |  | CCO[C@H]1CN([C@H]2C[C@@H](CO[C@H]3CC[C@H](C(=O)O)CC3)N(C(=O)Cc3cc(Cl)c(NC(=O)c4cn(C)c5ccccc45)cc3Cl)C2)C[C@H]1OCC [Example 63, Trans-4-[1-[[2,5-dichloro-4-[(1-methyl-1H-indol-3-ylcarbonyl)amino]phenyl]acetyl]-(4S)-(3,4-cis-diethoxypyrrolidin-1-yl)-(2S)-pyrrolidinylmethoxy]cyclohexanecarboxylic acid]
